Data published in patent EP3860956B1, “PROCESS FOR MANUFACTURING N-ALKYL-DIPHOSPHONATE AMINO AMINOACIDS” (Italmatch Chemicals S.p.A., priority 2018, dated 2020).
Read-outs that look alike come from different tables or passages of the source.

Experiments:
[1] = Thermal stability test in synthetic North Sea water; assay type: physicochemical; details: 1% active acid in synthetic North Sea water, pH 5.5, 140 °C, one week, 31P NMR; percentage by weight
Description: The test is carried out as follows: an aqueous solution containing 20% of scale inhibitor active acid at pH 5.5 (solution 1) is prepared. After that, synthetic North Sea water having a pH of 5.5 (solution 2) is prepared. A 1% scale inhibitor active acid sample is prepared by mixing 1 g of solution 1 with 19 g of solution 2. The so prepared sample is placed in a closed pressure resistant tube and kept in an oven at minimum 140 °C for one week. Finally, after one week, the sample is analyzed by means of 31P NMR spectroscopy.

[2] = Brine and sea water compatibility test (Ca tolerance); assay type: physicochemical; details: synthetic North Sea water pH 5.5, 90 °C, 24 hours
Description: Scale inhibitors, especially if they have anionic moieties, may form complexes and precipitate with hardness salts, for example calcium, before they can fulfill their dispersing and chelating functions. Compatibility tests are carried out to check if complexation happens or not. If compatibility is poor, not only precipitation occurs, but also overall scale formation becomes faster.

[3] = Barium sulphate scale inhibition; details: minimum phosphonate concentration to inhibit 100% BaSO4 scale; 50/50 North Sea water/Formation water, pH 6, 22 hours at 90 °C, ICP-MS
Description: To evaluate the efficiency of both scale inhibitors according to the present invention and comparative ones in preventing barium scale inhibition in oil field scaling conditions, the present test is carried out determining the amount of BaSO4 that has precipitated after 22 hours at 90 °C, in a 50/50 mixture of synthetic North Sea water
The amount of soluble Ba ions is determined by inductively coupled plasma mass spectrometry (ICP-MS).
The present test is carried out as follows: • synthetic North Sea and Formation waters are prepared at pH 6. These water solutions are preheated at 90 °C before starting the test. An acetic acid/sodium acetate buffer is prepared and added to the North Sea water in order to give the required pH; • - 15, 30, 50, 70 and 100 ppm of scale inhibitor active phosphonic acid is added to a glass bottle; • - 50 ml of North Sea water is added to this glass bottle while stirring. 50 ml of Formation water is then added to this glass bottle; • - one blank solution is prepared, by mixing 50 ml of North Sea water with 50 ml of Formation water; • - sample bottles were put in an oven for 22 hours at 90 °C; • - after 22 hours, 3 ml of each test solution was taken from the surface, was filtered through a 0.45 µm Millipore filter and added to a stabilizing solution.
The stabilized samples were analyzed by ICP-MS for Ba.
Ba scale inhibition stands for the minimum phosphonate concentration to inhibit 100% BaSO4 scale.
Note that the 100% phosphonate efficiencies for BaSO4 scale inhibition are calculated as follows: % Scale inhibition = (V1−V0/V2−V0) × 100 [formula] wherein V0 = ppm Ba found in the blank solution; V1 = ppm Ba found in the solution with the scale inhibitor; and V2 = ppm Ba present in the Formation water.

[4] = after 28 days; 2.0 ppm of pure active solid or 5.5 ppm as commercial product; previous study; cited from earlier work
[5] = Biodegradability, OECD 306 closed bottle marine test; details: after 14 days; 2 ppm of pure active solid
Description: Biodegradation tests are performed using the standard "closed bottle" marine test methods in accordance with OECD Guidelines 306. OECD306 is a test that measure biodegradation indirectly through the determination of the amount of dissolved oxygen in the medium. The measurement obtained are used to estimate the biodegradability (BOD) during the process.
The measured value of the BOD need to be corrected by dividing either with an experimental value of COD or a ThOD and multiply by 100% to get the biodegradability value.
OECD306 closed bottle test for was performed with a similar test set-up.

[6] = Calcium carbonate scale inhibition; details: 2 ppm active phosphonic acid; 240 ppm Ca2+, 732 ppm HCO3-, pH 8.7 buffer, 50 °C, 22 hours
Description: To evaluate the efficiency of both scale inhibitors according to the present invention and comparative ones in preventing calcium carbonate scale in industrial water treatment conditions, the present test is carried out determining the amount of CaCO3 that has precipitated after 22 hours at 50 °C in a 50/50 mixture of cationic and anionic waters with the test phosphonates at three different concentrations. The amount of soluble Ca ions is analyzed by titration. […]
Put the sample bottles in an oven for 22 hours at 50 °C. […] The phosphonate efficiency as CaCO3 scale inhibition is then calculated using the equation: % CaCO3 inhibition = (Cat−Cab) × 100)÷(Cai−Cab) [formula] wherein Cat = calcium remaining in solution of the t sample, where the dilution with HCl has been corrected (Cat=(Caf)×Wta/Wtsam); Cab = Calcium remaining in the blank (i.e. glass bottle wherein no phosphonate was added; under these condition corresponds to minimum of 80% of calcium precipitated as CacO3); and Cai = Total calcium present in a reference t sample (i.e. a sample t in which the hardness brine has simply been diluted with water to get the same final volume).

Compound	Decomposition (%) [1]	Ca Tolerance , visual observation ([2]; 100 ppm active acid)	Ca Tolerance , visual observation ([2]; 1000 ppm active acid)	Ca Tolerance , visual observation ([2]; 10000 ppm active acid)	Ca Tolerance , visual observation ([2]; 50000 ppm active acid)	100% Ba scale inhibition [3]	Biodegradability [4]	Biodegradability [5]	% CaCO3 inhibition [6]
O=P(O)(O)CN(CCO)CP(=O)(O)O [HEMPA, hydroxyethylamino-di(methylene phosphoric acid)]	19.0%	–	–	–	–	–	–	–	–
CC(O)(P(=O)(O)O)P(=O)(O)O [HEDP, 1-hydroxy ethylidene-1,1-diphosphonic acid]	2.3%	clear	turbid	turbid	clear	30ppm	–	–	–
O=C(O)CCCCCN(CP(=O)(O)O)CP(=O)(O)O	–	–	–	–	–	(no inhibition on Ba)	77.15%	–	–
O=C(O)CCCCCNC(P(=O)(O)O)P(=O)(O)O [Compound of Formula II, 6-((diphosphonomethyl)amino)hexanoic acid]	3.0%	clear	turbid	turbid	clear	50 ppm	–	31.5%	94% @ 2 ppm
O=P(O)(O)CN(CCN(CP(=O)(O)O)CP(=O)(O)O)CCN(CP(=O)(O)O)CP(=O)(O)O [DTMPA, [[(phosphonomethyl)imino]bis [2,1-ethanediylnitrilobis (methylene)]] tetrakis-phosphonic acid]	23.6%	clear	turbid	turbid	clear	15 ppm	–	–	–
O=P(O)(O)CN(CP(=O)(O)O)CP(=O)(O)O [ATMP, aminotris(methylenephosphonic acid)]	12.5%	–	–	–	–	–	–	–	–
